Data on 65 compounds can be found in ChEMBL document CHEMBL3886378, “Heterocyclic sulfone mGluR4 allosteric potentiators, compositions, and methods of treating neurological dysfunction” (2015).

Sequence of Metabotropic glutamate receptor 4 (Q14833 whole entry): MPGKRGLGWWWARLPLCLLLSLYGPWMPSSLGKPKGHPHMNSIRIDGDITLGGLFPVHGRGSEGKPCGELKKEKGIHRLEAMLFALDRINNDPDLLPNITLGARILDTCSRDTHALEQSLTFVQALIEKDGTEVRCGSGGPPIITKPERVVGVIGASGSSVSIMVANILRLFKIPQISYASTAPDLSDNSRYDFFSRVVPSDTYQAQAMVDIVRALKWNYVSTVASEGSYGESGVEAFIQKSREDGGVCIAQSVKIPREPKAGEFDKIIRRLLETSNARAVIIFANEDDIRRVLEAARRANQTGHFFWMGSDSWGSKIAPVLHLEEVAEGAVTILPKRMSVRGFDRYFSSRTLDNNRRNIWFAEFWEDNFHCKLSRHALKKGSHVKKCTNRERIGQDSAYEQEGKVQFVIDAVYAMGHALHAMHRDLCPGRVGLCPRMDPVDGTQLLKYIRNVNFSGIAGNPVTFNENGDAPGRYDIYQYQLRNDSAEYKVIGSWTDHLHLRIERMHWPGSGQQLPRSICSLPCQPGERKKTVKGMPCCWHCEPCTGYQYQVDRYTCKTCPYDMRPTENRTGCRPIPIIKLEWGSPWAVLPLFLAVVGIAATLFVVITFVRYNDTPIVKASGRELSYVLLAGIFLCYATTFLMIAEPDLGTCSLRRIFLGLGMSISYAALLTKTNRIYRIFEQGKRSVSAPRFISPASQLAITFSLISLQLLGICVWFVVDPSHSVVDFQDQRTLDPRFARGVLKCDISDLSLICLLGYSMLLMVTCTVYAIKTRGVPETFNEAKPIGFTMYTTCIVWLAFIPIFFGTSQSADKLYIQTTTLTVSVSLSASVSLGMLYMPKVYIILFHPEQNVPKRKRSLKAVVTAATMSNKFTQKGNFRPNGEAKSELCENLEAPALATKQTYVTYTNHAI

This test concerns the target Metabotropic glutamate receptor 4 (Homo sapiens, UniProt Q14833). Description: Receptor Activity Assay: The disclosed compounds and compositions can be evaluated for their ability to act as a potentiator of metabotropic glutamate receptor activity, in particular mGluR4 activity, by any suitable known methodology known in the art. For example, Chinese Hamster Ovary (CHO) cells transfected with human mGluR4 or HEK cells co-transfected with rat mGluR4 and the G-protein regulated Inwardly Rectifying Potassium channel (GIRK) were plated in clear bottom assay plates for assay in a Hamamatsu FDSS Fluorometric Plate Reader. The cells were loaded with either a Ca2+-sensitive fluorescent dye or the thallium responsive dye and the plates were washed and placed into a suitable kinetic plate reader. For human mGluR4 assays, a fluorescence baseline was established for 3-5 seconds, the disclosed compounds were then added to the cells, and the response in cells was measured. Type of test: functional, cell-based, HEK293.
On to `O=C(Nc1nc(C(F)(F)F)c(S(=O)(=O)Cc2c(F)cccc2F)s1)c1ccccn1`, for which the EC50 (usually the concentration that produces a half-maximal response) came out at 1060 nM.
For `Cc1ccc(CS(=O)(=O)c2sc(NC(=O)c3ccccn3)nc2C)cc1` the value was 445 nM.
The value for `Cc1nc(NC(=O)c2ccccn2)sc1S(=O)(=O)Cc1c(F)cccc1F` was 312 nM; that for `O=C(Nc1nc(C2CC2)c(S(=O)(=O)Cc2ccccc2F)s1)c1ccccn1` was 249 nM.
For `CC(C)c1nc(NC(=O)c2ccccn2)sc1S(=O)(=O)Cc1ccc(F)cc1F` the value was 3110 nM.
Consider `O=C(Nc1nc(C2CC2)c(S(=O)(=O)Cc2ccccc2Cl)s1)c1ccccn1`, for which the EC50 was 2980 nM.
The value for `O=C(Nc1ncc(S(=O)(=O)Cc2ccccc2F)s1)c1ccccn1` was 398 nM; that for `O=C(Nc1nc(C2CC2)c(S(=O)(=O)Cc2ccc(Cl)cc2F)s1)c1ccccn1` was 1290 nM.
For `CC(C)c1nc(NC(=O)c2ccccn2)sc1S(=O)(=O)Cc1c(F)cccc1F` the value was 316 nM; for `Cc1nc(NC(=O)c2ccccn2)sc1S(=O)(=O)Cc1cccc(C(F)(F)F)c1`, 2460 nM.
For `O=C(Nc1ncc(S(=O)(=O)Cc2ccccc2Cl)s1)c1ccccn1`, the EC50 is > 10000 nM.
For `CC(C)c1nc(NC(=O)c2ccccn2)sc1S(=O)(=O)Cc1ccc(Cl)cc1Cl`, the EC50 was determined as 3300 nM.
In the case of `O=C(Nc1nc(C(F)(F)F)c(S(=O)(=O)Cc2ccc(Cl)cc2Cl)s1)c1ccccn1`, the concentration for a half-maximal effect (EC50) is 497 nM.
The value for `Cc1nc(NC(=O)c2ccccn2)sc1S(=O)(=O)Cc1cc(F)ccc1F` was 1070 nM; that for `O=C(Nc1ncc(S(=O)(=O)Cc2ccc(Cl)cc2Cl)s1)c1ccccn1` was 49.9 nM.
For `Cc1ccc(S(=O)(=O)c2sc(NC(=O)c3ccccn3)nc2C)cc1` the value was 1610 nM; for `Cc1nc(NC(=O)c2ccccn2)sc1S(=O)(=O)Cc1ccc(Cl)cc1Cl`, 289 nM; for `O=C(Nc1nc(C2CC2)c(S(=O)(=O)Cc2ccc(Cl)cc2Cl)s1)c1ccccn1`, > 10000 nM.
For `Cc1nc(NC(=O)c2ccccn2)sc1S(=O)(=O)Cc1ccc(Cl)cc1` the value was 486 nM; for `O=C(Nc1ncc(SCc2ccc(Cl)cc2F)s1)c1ccccn1`, 8240 nM.
Regarding `O=C(Nc1nc(C(F)(F)F)c(S(=O)(=O)Cc2ccccc2Cl)s1)c1ccccn1`, the EC50 stood at 271 nM.
For `CCc1nc(NC(=O)c2ccccn2)sc1S(=O)(=O)Cc1c(Cl)cccc1Cl` the value was 88 nM; for `Cc1nc(NC(=O)c2ccccn2)sc1S(=O)(=O)Cc1ccc(F)cc1`, 1510 nM; for `CC(C)c1nc(NC(=O)c2ccccn2)sc1S(=O)(=O)C(C)c1ccccc1F` (stereo not given), 9570 nM.
For `Cc1nc(NC(=O)c2ccccn2)sc1S(=O)(=O)Cc1c(Cl)cccc1Cl` the value was 117 nM; for `CCc1nc(NC(=O)c2ccccn2)sc1S(=O)(=O)Cc1ccc(Cl)cc1F`, 294 nM.
Turning to `Cc1nc(NC(=O)c2ccccn2)sc1S(=O)(=O)C(C)c1ccccc1Cl` (stereo not given), the EC50 was determined as 3230 nM.
As for `Cc1nc(NC(=O)c2ccccn2)sc1S(=O)(=O)Cc1cccc(Cl)c1`, the EC50 amounted to 1390 nM.
The value for `CC(C)c1nc(NC(=O)c2ccccn2)sc1S(=O)(=O)Cc1ccc(Cl)cc1F` was 2930 nM; that for `Cc1cccc(S(=O)(=O)c2sc(NC(=O)c3ccccn3)nc2C)c1` was 6970 nM.
For `O=C(Nc1nc(C(F)F)c(S(=O)(=O)Cc2c(F)cccc2F)s1)c1ccccn1` the value was 683 nM; for `O=C(Nc1nc(C2CC2)c(S(=O)(=O)Cc2c(F)cccc2F)s1)c1ccccn1`, > 10000 nM; for `Cc1nc(NC(=O)c2ccccn2)sc1S(=O)(=O)C(C)c1ccccc1F` (stereo not given), 4780 nM.
The value for `Cc1nc(NC(=O)c2ccccn2)sc1S(=O)(=O)Cc1ccc(Cl)cc1F` was 255 nM.
In the case of `Cc1nc(NC(=O)c2ccccn2)sc1S(=O)(=O)Cc1ccccc1Cl`, the EC50 came to 504 nM.
`O=C(Nc1nc(CO)c(S(=O)(=O)Cc2c(F)cccc2F)s1)c1ccccn1`: the concentration for a half-maximal effect (EC50) came to 8810 nM.
For `O=C(Nc1ncc(SCc2ccc(Cl)cc2Cl)s1)c1ccccn1` the value was 5000 nM.
For the compound `O=C(Nc1ncc(S(=O)(=O)Cc2ccc(Cl)cc2F)s1)c1ccccn1`, the concentration giving a half-maximal response (EC50) is 44.1 nM.
`O=C(Nc1nc(C(F)(F)F)c(S(=O)(=O)Cc2ccc(F)cc2F)s1)c1ccccn1`: the half-maximal effective concentration (EC50) came to 1730 nM.
Consider `Cc1nc(NC(=O)c2ccccn2)sc1S(=O)(=O)Cc1ccc(F)cc1F`, for which the EC50 was determined as 1010 nM.
As for `CCc1nc(NC(=O)c2ccccn2)sc1S(=O)(=O)Cc1c(F)cccc1Cl`, the half-maximal effective concentration (EC50) was 141 nM.
For `CC(C)c1nc(NC(=O)c2ccccn2)sc1S(=O)(=O)C(C)c1ccccc1Cl` (stereo not given) the value was 3750 nM.
The value for `CCc1nc(NC(=O)c2ccccn2)sc1S(=O)(=O)Cc1c(C)cc(C)cc1C` was 354 nM; that for `Cc1nc(NC(=O)c2ccccn2)sc1S(=O)(=O)Cc1ccc(F)c(Cl)c1` was 2350 nM.
For `O=C(Nc1nc(C(F)(F)F)c(S(=O)(=O)Cc2ccccc2F)s1)c1ccccn1` the value was 401 nM; for `CCc1nc(NC(=O)c2ccccn2)sc1S(=O)(=O)Cc1ccc(Cl)cc1Cl`, 939 nM; for `CCc1nc(NC(=O)c2ccccn2)sc1S(=O)(=O)Cc1ccc(C)cc1`, 450 nM.
With `COc1ccc(CS(=O)(=O)c2sc(NC(=O)c3ccccn3)nc2C)cc1`, the EC50 was 1960 nM.
For `Cc1nc(NC(=O)c2ccccn2)sc1S(=O)(=O)Cc1ccc(F)c(F)c1` the value was 937 nM; for `O=C(Nc1ncc(S(=O)(=O)Cc2c(F)cccc2F)s1)c1ccccn1`, 170 nM; for `O=C(Nc1nc(CF)c(S(=O)(=O)Cc2c(F)cccc2F)s1)c1ccccn1`, 463 nM.
For `CC(C)c1nc(NC(=O)c2ccccn2)sc1S(=O)(=O)Cc1ccccc1Cl` the value was 1950 nM; for `Cc1nc(NC(=O)c2ccccn2)sc1S(=O)(=O)Cc1cc(F)c(F)cc1F`, 322 nM.
With `Cc1nc(NC(=O)c2ccccn2)sc1S(=O)(=O)Cc1ccccc1C(F)(F)F`, the concentration giving a half-maximal response (EC50) was 1020 nM.
For the compound `Cc1ccccc1CS(=O)(=O)c1sc(NC(=O)c2ccccn2)nc1C`, the 50% effective concentration (EC50) was 709 nM.
The value for `CCc1nc(NC(=O)c2ccccn2)sc1S(=O)(=O)Cc1c(F)cccc1F` was 139 nM; that for `Cc1nc(NC(=O)c2ccccn2)sc1S(=O)(=O)Cc1ccc(C(C)C)cc1` was 1050 nM.
`Cc1nc(NC(=O)c2ccccn2)sc1S(=O)(=O)Cc1ccccc1F`: the EC50 amounted to 1330 nM.
On to `Cc1nc(NC(=O)c2ccccn2)sc1S(=O)(=O)Cc1c(F)cccc1Cl`, for which the EC50 stood at 192 nM.
The value for `O=C(Nc1nnc(S(=O)(=O)Cc2ccccc2)s1)c1ccccn1` was > 10000 nM.
The value for `Cc1nc(NC(=O)c2ccccn2)sc1S(=O)(=O)Cc1cccc(Cl)c1F` was 535 nM.
For `O=C(Nc1nc(C2CC2)c(S(=O)(=O)Cc2ccc(F)cc2F)s1)c1ccccn1`, the EC50 was determined as 1050 nM.
For `CCc1nc(NC(=O)c2ccccn2)sc1S(=O)(=O)Cc1cccc(Cl)c1F` the value was 488 nM; for `CC(C)c1nc(NC(=O)c2ccccn2)sc1S(=O)(=O)Cc1ccccc1F`, 3660 nM.
For `O=C(Nc1nc(C(F)(F)F)c(S(=O)(=O)Cc2ccc(Cl)cc2F)s1)c1ccccn1`, the EC50 was 181 nM.
